The conditions of series [1]: kH=Ca/Pg, concentration in water over partial pressure in the gas phase; cited from earlier work.
For series [2], the system named is S. cerevisiae CBS 8066. The series is described as follows: Small-scale batch cultivation testing the effect of acetaldehyde on formation of ethanol and glycerol. The following applies: 1.76 mM acetaldehyde in, single addition at start; 280 mM glucose at start; 90 minutes of incubation. It counts as cell-based, Saccharomyces cerevisiae. Here is the method:
(§1) The column was eluted at 60° C. with 0.5 g/l H2S04 at a flow rate of 0.6 ml min^−1 . Detection was by means of a Waters 2410 refractive-index detector and a Waters 2487 UV detector. Initial and final glycerol concentrations were further determined using an enzymatic determination kit (Rbiopharm AG, Darmstadt, Germany).
Carbon dioxide was allowed to escape from the bottles by inserting a needle in the septum of the cap. The bottles were incubated stationary. A sample per bottle was taken at the start of the experiment and after 90 minutes of incubation.
The initial cell concentration was 0.45 g/l dry biomass. Acetaldehyde was supplied to the bottle in a single addition at the start of the incubation. In a separate control run, no acetaldehyde was supplied.

The test system of a further series is Ethanol Red strain. As to the kind of experiment: Batch fermentation testing acetaldehyde additions at high ethanol concentrations. The settings on record: acetaldehyde added once ethanol had reached 80 g/l, controlled between 0.06 and 0.1 g/l; 180 minutes without acetaldehyde. In kind it is cell-based. Here is the method:
The stirring speed was set at 300 r.p.m. and the pH of the mineral salts medium containing 280 g/l glucose was kept at 5 by adding 2 M NaOH. The condenser at the outlet of the gas stream was connected to a cryostat and cooled at 2° C. The condensate was returned into the fermentation vessel. […] Sampling was from a loop kept at 35° C. for circulating gas from the headspace. […] The solution entered in the aqueous phase via a needle at the outlet of the tubing.
The mineral salts medium was employed with the addition of yeast extract at 1 g/l. The initial cell concentration was 0.5 g/l dry biomass. Air was supplied to the headspace of the fermenter at 15 ml/min during the first 2 hours of cultivation after which conditions were kept anoxic. Glucose was added initially at 230 g/l. […] The concentration was monitored from the headspace and controlled in the fermenter liquid between 0.06 and 0.1 g/l. In a control experiment, no acetaldehyde was supplied.

For series [3], the system named is lactic acid bacteria, belonging to Lactobacillus, Pediococcus, Leuconostoc and Weissella. The series is described as follows: Semi-anoxic co-culture of yeast with lactic acid bacteria at increasing acetaldehyde concentrations. It counts as cell-based. The settings on record: increasing concentrations of acetaldehyde in subsequent batches; without acetaldehyde the bacteria remained present. Here is the method:
Media for plates (1.5% agar) for S. cerevisiae were the mineral salts medium supplement with 2% glucose and for lactic acid bacteria the de Man, Rogosa and Sharpe (MRS) medium. Cycloheximide (0.1 g/l) was added to the plates in case mixed cultures of yeast and lactic acid bacteria were studied.
Semi-anoxic batch cultivation of the yeasts together with lactic acid bacteria was done at 30° C. in 100-ml Erlenmeyer flasks. The flasks contained 50 ml mineral salts medium supplied with glucose (12 g/l) and they were incubated without shaking. Air could enter in the flasks via cotton plugs.
S. cerevisiae CEN.PK2-1C was subjected to evolutionary engineering analogous to the procedure described above, except that now semi-anoxic conditions were employed. Eight strains of lactic acid bacteria, belonging to Lactobacillus, Pediococcus, Leuconostoc and Weissella, were inoculated as well. The dynamics of the quantitative growth of the 9 organisms thus present as co-culture was followed during the procedure of evolutionary engineering. During each successive transfer step, the suspension after growth was plated on media that allow growth of either S. cerevisiae or of the 8 strains of lactic acid bacteria. […] Under this circumstance, the lactic acid bacteria remained present in the system.

Another series concerns S. cerevisiae CEN.PK2-1C. As to the kind of experiment: Evolutionary engineering for enhanced tolerance to acetaldehyde (oxic batch cultivation). The settings on record: batch system; compared to the parent strain in the absence of acetaldehyde. In kind it is cell-based, Saccharomyces cerevisiae. On the procedure:
The flasks contained 20 ml mineral salts medium supplied with glucose (12 g/l) and they were incubated on a rotary shaker at 400 r.p.m. Air could enter in the flasks via cotton plugs.
The organisms were cultivated under oxic conditions in a batch-wise mode. The initial pH of the mineral salts medium was set at 6 by titrating with KOH and glucose was added at 12 g/l. […] The newly acquired strains retained their ability to withstand higher acetaldehyde levels also when cultivating them anoxically in mineral salts medium with glucose and for prolonged periods of times. This subculturing was by taking an aliquot of 0.5 ml from a culture that had consumed all glucose and by transferring this inoculum to fresh medium (50 ml).

For series [4], the system named is S. cerevisiae CBS 8066. The series is described as follows: Anoxic chemostat fermentation under glucose limitation in absence or presence of acetaldehyde. In kind it is cell-based, Saccharomyces cerevisiae. The following applies: for Δ ethanol produced / Δ glycerol produced: relative to steady state 1 without acetaldehyde; for acetaldehyde concentration in chemostat sample / acetic acid concentration in chemostat sample / ethanol concentration in chemostat sample / glucose concentration in chemostat sample / glycerol concentration in chemostat sample / pyruvic acid concentration in chemostat sample / succinic acid concentration in chemostat sample: dilution rate 0.11 h^−1, duplicate samples A and B. Here is the method: as §1
The mineral salts medium employed was based on standard media (Bruinenberg et al. 1983. Journal of General Microbiology 129:965-971; Verduin et al 1990. Journal of General Microbiology 136:395-403). It contained the following per liter of demineralized water: (NH4)2SO4, 5 g; KH2PO4, 3 g; MgSO4.7H2O, 0.5 g; EDTA, 15 mg; ZnSO4.7H20, 4.5 mg; CoCl2 6H2O, 0.3 mg; MnCl2 4H20, 1 mg; CuSO4 5H20, 0.3 mg; CaCl2. 2H20, 4.5 mg; FeSO4 7H20, 3 mg; Na2MoO4. 2H2O, 0.4 mg; H3BO3, 1 mg; KI, 0.1 mg; and 0.025 ml silicone antifoam (BDH). After heat sterilization at 120° C. and cooling, filter sterilized vitamins were added: biotin, 0.05 mg; calcium pantothenate, 1 mg; nicotinic acid, 1 mg; inositol, 25 mg; thiamin.HCl, 1 mg; pyridoxine.HCl, 1 mg; and para-aminobenzoic acid, 0.2 mg. Ergosterol and Tween 80 were dissolved in pure ethanol and steamed at 100° C. for 10 minutes before they were added to the medium to give final concentrations of 10 and 400 mg/l, respectively, and a final concentration of 38 mM ethanol. […] The sterilized glucose solution was added to the sterile mineral salts medium to give the required final concentration.
Anoxic chemostat cultivation of the yeasts was done at 30° C. in a fermenter with a working volume of 1 liter and at a stirring speed of 600 r.p.m. The pH was automatically controlled at pH=5 by titration with 2 M KOH. The condenser at the outlet of the gas stream was connected to a cryostat and cooled at 2° C. The condensate was returned into the fermentation vessel. The tubing on the entire fermenter set-up (including medium- and waste-reservoirs) consisted of material (Norprene tubing) that is very poorly permeable for oxygen. The fermenter and the medium reservoir (with a magnetic stirrer) were sparged with certificated ultra-pure nitrogen prior to the addition of acetaldehyde to the reservoir.
Strain S. cerevisiae CBS 8066 was cultivated in chemostat culture at a dilution rate of 0.11 h^−1. The glucose concentration in the medium reservoir was […] in each run. Three separate steady states were obtained in either the absence or presence of acetaldehyde. The effect of the aldehyde on the fermentation was tested by adding the compound to the medium reservoir after a steady state situation in its absence (medium and samples “1”) had been established. […] In each of the three steady states (after 3-5 volume changes), the fermentation medium in the fermenter was analyzed for various compounds as summarized in Tables 1 and 2.

A further series concerns Lactococcus lactis. The settings on record: cited from earlier work.
Where [5] appears, read: Steady state 2 (6 mM acetaldehyde supplied).
Setting [6] is: Steady state 3 (15 mM acetaldehyde supplied).
Setting [7] is: steady state 2, 6 mM acetaldehyde supplied.
Where [8] appears, read: steady state 3, 15 mM acetaldehyde supplied.

Values joined by “and” are separate entries in the source; they are usually repeats but may differ in a detail not shown here. Equal entries are not always repeated.

Consider `O=O` [oxygen], for which the “Henry's law constant kH” value in series [1] was 1.3*10^−3 M/atm.
As to `CC=O` [acetaldehyde], in the series on S. cerevisiae CBS 8066 [2], the Acetaldehyde at end turned out to be 1.01 mM, the Ethanol at end is 6.67 mM and the Glycerol at end is 0.58 mM. Moreover, the “Henry's law constant kH” value in series [1] is recorded as 15 M/atm. The “time required to reach 98 g/l of ethanol in the liquid” value in the series on Ethanol Red strain is 158 min. In addition, the “fate of the lactic acid bacteria in the co-culture” value in series [3] is listed as “disappeared”. Further, the “acetaldehyde concentration in whose presence the evolved strain grew without a noticeable change in growth rate” value in the series on S. cerevisiae CEN.PK2-1C worked out at 0.5 g/L. For the same compound, in the series with S. cerevisiae CBS 8066 [4] (setting [5]), the acetaldehyde consumed is -6 mM, the glucose consumed was 136 mM, the Δ ethanol produced was found to be 15 mM and the Δ glycerol produced was -6 mM. In the series on S. cerevisiae CBS 8066 [4] (setting [6]), the acetaldehyde consumed is -16 mM, the glucose consumed stood at 136 mM, the Δ ethanol produced worked out at 27 mM and the Δ glycerol produced was -11 mM. In the series with S. cerevisiae CBS 8066 [4] (setting [7]), the “acetaldehyde concentration in chemostat sample” value is listed as 0.03 mM; the “acetic acid concentration in chemostat sample” value is 0.64 mM and 0.54 mM; the “ethanol concentration in chemostat sample” value is 243.13 mM and 244.74 mM; the “glucose concentration in chemostat sample” value was 0.48 mM and 0.46 mM. Also, in the series on S. cerevisiae CBS 8066 [4] (setting [7]), the “glycerol concentration in chemostat sample” value is 9.47 mM and 9.60 mM; the “pyruvic acid concentration in chemostat sample” value was 0.56 mM and 0.51 mM; the “succinic acid concentration in chemostat sample” value was 0.43 mM and 0.45 mM. In addition, in the series with S. cerevisiae CBS 8066 [4] (setting [8]), the “acetaldehyde concentration in chemostat sample” value was 0.04 mM; the “acetic acid concentration in chemostat sample” value is 0.78 mM and 0.69 mM; the “ethanol concentration in chemostat sample” value was 255.35 mM and 255.25 mM; the “glucose concentration in chemostat sample” value is 0.44 mM and 0.48 mM. In the series on S. cerevisiae CBS 8066 [4] (setting [8]), the “glycerol concentration in chemostat sample” value was 4.04 mM and 4.02 mM; the “pyruvic acid concentration in chemostat sample” value was 0.48 mM; the “succinic acid concentration in chemostat sample” value was 0.45 mM and 0.50 mM. In addition, in the series on Lactococcus lactis, the “concentration resulting in a reduction of the growth rate by 50%” value was 0.4 kg/m^3; the “minimum inhibitory concentration (MIC)” value is 35 mM and 1.5 kg/m^3. In addition, in the series on Lactococcus lactis (read-out: concentration resulting in a reduction of the growth rate by 50%), the IC50 was 9 mM.
For `CCO` [ethanol], in series [1], the “Henry's law constant kH” value is recorded as “approximately 200 M/atm”.
